Measurements: ChEMBL document CHEMBL3217485, “Understanding and overcoming aminoglycoside resistance caused by N-6'-acetyltransferase” (Medchemcomm, 2012)
pIC50, pKd, pKi: −log10 of the molar value. Converted amounts (≈) assume the structure as drawn. One block for each molecule: values may come before it. The source made the active and inactive calls. The calls are words filed in the database; no cut-off is given here. Where a SMILES comes first, the peptide text is derived from it.

Assays:
[1] = Inhibition of AAC(6')-le (unknown origin)
[2] = Inhibition of AAC(6')-li (unknown origin)
Aac(6')-Ii protein = Aac(6')-Ii protein (Enterococcus faecium, UniProt Q47764); assay: Inhibition of Enterococcus faecium AAC(6')-li
[3] = Activity at AAC(6')-li (unknown origin)
[4] = Binding affinity to AAC(6')-lb (unknown origin)
Pseudomonas aeruginosa = assay: Antibacterial activity against kanamycin-resistant Pseudomonas aeruginosa GN315 expressing AAC(6') enzyme; assay type: functional
Escherichia coli = assay: Antibacterial activity against kanamycin-resistant Escherichia coli K-12 R5 expressing AAC(6') enzyme; assay type: functional

Sequence of Aac(6')-Ii protein (Q47764 whole entry): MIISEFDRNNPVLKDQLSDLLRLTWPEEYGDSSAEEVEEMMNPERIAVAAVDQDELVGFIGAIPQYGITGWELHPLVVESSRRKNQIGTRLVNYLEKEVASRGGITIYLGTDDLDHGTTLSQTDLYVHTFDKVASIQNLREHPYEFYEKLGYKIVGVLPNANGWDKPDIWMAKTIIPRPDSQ

Molecule: NCC(=O)NC[C@H]1O[C@H](O[C@H]2[C@H](O)[C@@H](O)[C@H](N)C[C@@H]2N)[C@H](N)[C@@H](O)[C@@H]1O
Km [3]: > 500 µM

Molecule: N#Cc1ccc(O[C@H]2C[C@H](N)C[C@@H]2N)cc1
pKd [4]: 4.70

Molecule: NC[C@@H]1CC[C@@H](N)[C@@H](O[C@H]2[C@H](O)[C@@H](O[C@H]3O[C@H](CO)[C@@H](O)[C@H](N)[C@H]3O)[C@H](N)C[C@@H]2N)O1 [DIBEKACIN]
MIC (Pseudomonas aeruginosa): > 100 mg/L
MIC (Escherichia coli): 25 mg/L (≈ 55.4 µM)

Molecule: CC[C@H](C)[C@H](NC(=O)[C@H](CC(C)C)NC(=O)[C@H](C)NC(=O)[C@@H]1CCCN1C(=O)[C@H](CC(C)C)NC(=O)CNC(=O)[C@@H](NC(=O)[C@@H](NC(=O)[C@H](CC(C)C)NC(=O)[C@@H](NC(=O)[C@H](CCCCN)NC(=O)[C@H](CCCCN)NC(=O)[C@@H](NC(=O)[C@H](C)NC(=O)[C@@H](NC(=O)[C@@H](NC(=O)[C@H](CC(C)C)NC(=O)[C@H](CCCCN)NC(=O)[C@H](CCCCN)NC(=O)[C@@H](NC(=O)[C@H](Cc1ccccc1)NC(=O)[C@H](CO)NC(=O)[C@H](CCCCN)NC(=O)[C@H](Cc1c[nH]c2ccccc12)NC(=O)[C@@H](N)CCCCN)[C@@H](C)CC)[C@@H](C)O)[C@@H](C)O)C(C)C)C(C)C)[C@@H](C)O)[C@@H](C)O)C(=O)N[C@@H](CO)C(=O)O
pIC50 [1]: 4.68
inhibition [2]: inactive

Molecule: Nc1cccc(C(=O)O[C@H]2C[C@H](N)C[C@@H]2N)c1
pKd [4]: 4.24

Molecule: NC[C@@H]1O[C@@H](O[C@H]2[C@H](O)[C@@H](O[C@H]3O[C@H](CO)[C@@H](O)[C@H](N)[C@H]3O)[C@H](N)C[C@@H]2N)[C@@H](O)[C@H](O)[C@H]1O [KANAMYCIN A]
MIC (Pseudomonas aeruginosa): > 100 mg/L
MIC (Escherichia coli): 25 mg/L (≈ 51.6 µM)

Molecule: CNC[C@@H]1CC[C@@H](N)[C@@H](O[C@H]2[C@H](O)[C@@H](O[C@@H]3O[C@@H](CO)[C@H](O)[C@@H](N)[C@@H]3O)[C@H](N)C[C@@H]2N)O1
MIC (Pseudomonas aeruginosa): 12.5 mg/L (≈ 26.9 µM)
MIC (Escherichia coli): 1.56 mg/L (≈ 3.35 µM)

Molecule: CCNC[C@H]1O[C@H](O[C@H]2[C@H](O)[C@@H](O[C@@H]3O[C@@H](CO)[C@H](O)[C@@H](N)[C@@H]3O)[C@H](NC(=O)[C@@H](O)CCN)C[C@@H]2N)[C@H](O)[C@@H](O)[C@@H]1O
MIC (Pseudomonas aeruginosa): 100 mg/L (≈ 163 µM)
MIC (Escherichia coli): 1.56 mg/L (≈ 2.54 µM)

Molecule: N[C@@H]1C[C@H](N)[C@@H](O)C1
pKd [4]: 4.39

Molecule: CC(C)(CO)[C@@H](O)C(=O)NCCC(=O)NCCSCCCCC(=O)NC[C@H]1O[C@H](O[C@H]2[C@H](O)[C@@H](O)[C@H](N)C[C@@H]2N)[C@H](N)[C@@H](O)[C@@H]1O
pKi (Aac(6')-Ii protein): ≤ 3.30

Results, then the molecule that gave them:

inhibition [1]: inactive
pIC50 [2]: 4.64
Molecule: H-ILKKWPWWPWRRK-OH

pKi (Aac(6')-Ii protein): ≤ 3.70
Molecule: CC(=O)CC(=O)N(Cc1ccccc1)CC(C)(C)[C@@H](O)C(=O)NCCC(=O)NCCSCC(=O)NC[C@H]1O[C@H](O[C@H]2[C@H](O)[C@@H](O)[C@H](N)C[C@@H]2N)[C@H](N)[C@@H](O)[C@@H]1O

inhibition [1]: inactive
inhibition [2]: inactive
Molecule: CC(C)C[C@H](NC(=O)[C@H](CCCNC(=N)N)NC(=O)CNC(=O)CNC(=O)[C@@H](N)CCCNC(=N)N)C(=O)N[C@@H](CS)C(=O)N[C@@H](Cc1ccc(O)cc1)C(=O)N[C@@H](CS)C(=O)N[C@@H](CCCNC(=N)N)C(=O)N[C@@H](CCCNC(=N)N)C(=O)N[C@@H](CCCNC(=N)N)C(=O)N[C@@H](Cc1ccccc1)C(=O)N[C@@H](CS)C(=O)N[C@H](C(=O)N[C@@H](CS)C(=O)N[C@H](C(=O)NCC(=O)N[C@@H](CCCNC(=N)N)C(=O)O)C(C)C)C(C)C (H-RGGRLCYCRRRFCVCVGR-OH)

pKi [2]: 6.79
Molecule: CC(C)(COP(=O)(O)OP(=O)(O)OC[C@H]1O[C@@H](n2cnc3c(N)ncnc32)[C@H](O)[C@@H]1OP(=O)(O)O)[C@@H](O)C(=O)NCCC(=O)NCCSCCCC(=O)NC[C@H]1O[C@H](O[C@H]2[C@H](O)[C@@H](O)[C@H](N)C[C@@H]2N)[C@H](N)[C@@H](O)[C@@H]1O

pKi (Aac(6')-Ii protein): ≤ 3.00
Molecule: CC(C)(COC(=O)CCC(=O)O)[C@@H](O)C(=O)NCCC(=O)NCCSCC(=O)NC[C@H]1O[C@H](O[C@H]2[C@H](O)[C@@H](O)[C@H](N)C[C@@H]2N)[C@H](N)[C@@H](O)[C@@H]1O

inhibition [1]: inactive
pIC50 [2]: 5.36
Molecule: H-ILAWKWAWWAWRR-OH

inhibition [1]: inactive
pIC50 [2]: 4.62
Molecule: H-KWKKFIKSLTKAAKTVVKTAKKPLIV-OH

pKi [2]: 7.12
Molecule: CC(C)(COP(=O)(O)OP(=O)(O)OC[C@H]1O[C@@H](n2cnc3c(N)ncnc32)[C@H](O)[C@@H]1OP(=O)(O)O)[C@@H](O)C(=O)NCCC(=O)NCCSCC(=O)NC[C@H]1O[C@H](O[C@H]2[C@H](O)[C@@H](O)[C@H](N)C[C@@H]2N)[C@H](N)[C@@H](O)[C@@H]1O

Km [3]: > 500 µM
Molecule: N[C@H]1[C@@H](O[C@H]2[C@H](O)[C@@H](O)[C@H](N)C[C@@H]2N)O[C@H](CNC(=O)CO)[C@@H](O)[C@@H]1O
